Biological target: T1, CYP2C9 (Homo sapiens, UniProt P11712)
T1 construct: human liver microsomes
Test: inhibition of S-warfarin 7-hydroxylation (CYP2C9 marker) in human liver microsomes, HPLC-FLD
Assay type: biochemical

T1 sequence (P11712 whole entry): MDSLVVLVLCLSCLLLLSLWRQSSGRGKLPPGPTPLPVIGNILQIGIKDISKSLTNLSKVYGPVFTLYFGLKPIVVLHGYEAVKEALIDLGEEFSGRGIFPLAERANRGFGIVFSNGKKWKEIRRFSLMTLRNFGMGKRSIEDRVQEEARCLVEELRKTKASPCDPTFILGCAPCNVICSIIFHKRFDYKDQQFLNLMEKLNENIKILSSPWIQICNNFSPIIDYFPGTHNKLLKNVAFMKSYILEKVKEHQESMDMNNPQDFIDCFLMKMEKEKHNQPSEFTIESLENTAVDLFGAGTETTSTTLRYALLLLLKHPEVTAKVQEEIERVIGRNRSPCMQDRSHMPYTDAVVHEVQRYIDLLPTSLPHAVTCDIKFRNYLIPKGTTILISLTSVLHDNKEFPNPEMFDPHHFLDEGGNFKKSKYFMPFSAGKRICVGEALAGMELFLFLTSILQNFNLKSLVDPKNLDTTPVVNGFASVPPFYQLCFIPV

SMILES: O=C(/C=C/C=C/c1ccc2c(c1)OCO2)N1CCCCC1 [piperine]
- IC50: 14.2 ± 1.1 µM

— publication PMC11130653, “Development of a rapid HPLC-fluorescence method for monitoring warfarin metabolites formation: In vitro studies for evaluating the effect of piperine on warfarin metabolism and plasma coagulation” (Heliyon, 2024)
